Assay results published in patent publication EP2574333B1, “N-acetylcysteine effervescent tablet and its therapeutical applications” (Friulchem SpA, priority 2011, dated 2013).
Where two headings read alike, the source gives them in different places.

Legend:
[1] = rats, intraperitoneal route; cited from earlier work
[2] = human, intravenous route; cited from earlier work
[3] = 11,195 cases of suspected acetaminophen overdose reviewed; cited from earlier work
[4] = in vivo, iv
[5] = chronic toxicity in rats, for 12 months; cited from earlier work
[6] = cited from earlier work
[7] = Chronic toxicity in rats (NOEL); type: in vivo; conditions: oral route, 60 kg
Glutathione (GSH) = conditions: cited from earlier work
[8] = mouse, cited from earlier work

## CC(=O)N[C@@H](CS)C(=O)O [NAC, N-acetylcysteine]
[1]
  Toxic Dose Low (TDLO): 150 to 200 mg/kg
[2]
  Toxic Dose Low (TDLO): 150 to 200 mg/kg
[3]
  effectiveness of 72-hour oral regimen: as effective as the 24-hour regimen
[4]
  1200 mg dose (20 mg/kg) referred to TDLO in human: about 10 times less
[5]
  no observed effect level (NOEL) dose: about 1000 mg/kg/day
[6]; after oral administration
  plasma half-life: 6.3 h
  time at which maximum plasma concentration is reached: 2 to 3 h
[6]; following oral administration for 4-14 days
  NAC in plasma or bronchoalveolar lavage fluid: cannot be detected
[6]; oral, unchanged molecule
  bioavailability: about 10%
[7]
  1200 mg dose (20 mg/kg) referred to NOEL in rats: 50 times less
Glutathione (GSH); NAC 600 mg once daily
  cysteine and GSH levels in plasma and lung: increased transiently
Glutathione (GSH); patients with COPD, 600 mg once daily
  plasma concentration of Glutathione (GSH): unchanged
Glutathione (GSH); patients with COPD, 600 mg three times daily
  plasma GSH levels: increased
[8]; intraperitoneal route
  Toxic Dose Low (TDLO): 408 to 450 mg/kg
[8]; oral route
  Toxic Dose Low (TDLO): 300 mg/kg
